The text below walks through data of patent US20100317647A1 (priority 2009, published 2010).

The term IC50 denotes the concentration that gives 50% inhibition. High values mean weaker potency, low ones greater potency.

The target in the test is human Cat S (Homo sapiens, UniProt P25774). The experiment in a line: Cathepsin enzyme inhibition assay (fluorogenic peptide substrate cleavage). It counts as biochemical. To be noted: human Cat S 1 nM; substrate Z-Val-Val-Arg-AMC 20 μM; pH 6.5; fluorescence over 20 minutes. A digest of the protocol: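 Fluorogenic cleavage of Z-Val-Val-Arg-AMC (20 μM) by 1 nM enzyme in 100 mM potassium phosphate pH 6.5, 5 mM EDTA, 5 mM DTT, 0.001% Triton X-100. Reaction started with substrate; fluorescence (ex 360/em 465 nm) followed over 20 minutes. IC50 by standard methods.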
Chain of human Cat S (P25774 115-331): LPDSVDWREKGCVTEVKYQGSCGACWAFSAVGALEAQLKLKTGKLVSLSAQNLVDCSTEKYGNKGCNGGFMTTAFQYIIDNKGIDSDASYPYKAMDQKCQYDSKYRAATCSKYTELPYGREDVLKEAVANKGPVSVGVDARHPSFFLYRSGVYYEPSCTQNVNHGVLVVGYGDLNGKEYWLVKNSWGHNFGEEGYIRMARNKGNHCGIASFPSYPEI
For `CS(=O)(=O)c1cc(Cl)ccc1CO[C@@H]1C[C@H](S(=O)(=O)c2ccccc2Cl)C[C@H]1C(=O)NC1(C#N)CC1` (racemic) [Example 248, (1R,2R,4R) and (1S,2S,4S)-4-(2-Chloro-benzenesulfonyl)-2-(4-chloro-2-methanesulfonyl-benzyloxy)-cyclopentanecarboxylic acid (1-cyano-cyclopropyl)-amide], the IC50 amounted to 3.5 nM.
For `Cc1cc(-c2ccc(S(=O)(=O)[C@H]3C[C@@H](OC4CCS(=O)(=O)CC4)[C@H](C(=O)NC4(C#N)CC4)C3)c(C(F)(F)F)c2)ccn1` (racemic) [Example 183, (1R,2R,4R) and (1S,2S,4S)-2-[(tetrahydro-1,1-dioxo-2H-thiopyran-4-yl)oxy]-4-[4-(2-methyl-pyridin-4-yl)-2-trifluoromethyl-benzenesulfonyl]-cyclopentanecarboxylic acid (1-cyano-cyclopropyl)-amide], the half-maximal inhibitory concentration (IC50) turned out to be 0.2 nM.
As for `N#CC1(NC(=O)[C@@H]2C[C@@H](S(=O)(=O)c3ccccc3C(F)(F)F)C[C@H]2OC2CCS(=O)(=O)CC2)CC1` (racemic) [Example 219, (1R,2R,4R) and (1S,2S,4S)-2-[(tetrahydro-1,1-dioxo-2H-thiopyran-4-yl)oxy]-4-(2-trifluoromethyl-benzenesulfonyl)-cyclopentanecarboxylic acid (1-cyano-cyclopropyl)-amide], the figure is 6.77 nM; as for `CO[C@@H]1C[C@H](S(=O)(=O)c2ccccc2C(F)(F)F)C[C@H]1C(=O)NC1(C#N)CC1` (racemic) [Example 46, (1R,2R,4R) and (1S,2S,4S)-2-Methoxy-4-(2-trifluoromethyl-benzenesulfonyl)-cyclopentanecarboxylic acid (1-cyano-cyclopropyl)-amide], 5.8 nM.
Next, `CO[C@@H]1C[C@H](S(=O)(=O)c2ccc(-c3ccnc(C(F)(F)F)c3)cc2C(F)(F)F)C[C@H]1C(=O)NC1(C#N)CC1` (racemic) [Example 109, (1R,2R,4R) and (1S,2S,4S)-2-Methoxy-4-[2-trifluoromethyl-4-(2-trifluoromethyl-pyridin-4-yl)-benzenesulfonyl]-cyclopentanecarboxylic acid (1-cyano-cyclopropyl)-amide]: 0.4 nM; `N#CC1(NC(=O)[C@@H]2C[C@@H](S(=O)(=O)c3ccccc3C(F)(F)F)C[C@H]2OC2CCOCC2)CC1` (racemic) [Example 175, (1R,2R,4R) and (1S,2S,4S)-2-(Tetrahydro-pyran-4-yloxy)-4-(2-trifluoromethyl-benzenesulfonyl)-cyclopentanecarboxylic acid (1-cyano-cyclopropyl)-amide]: 0.48 nM.
Next, `COCc1cn(-c2ccc(S(=O)(=O)[C@@H]3C[C@H](OC)[C@@H](C(=O)NC4(C#N)CC4)C3)c(C(F)(F)F)c2)nn1` (racemic) [Example 246, (1S,2S,4S) and (1R,2R,4R)-2-Methoxy-4-[4-(4-methoxymethyl-[1,2,3]triazol-1-yl)-2-trifluoromethyl-benzenesulfonyl]-cyclopentanecarboxylic acid (1-cyano-cyclopropyl)-amide]: 1.25 nM; `N#CC1(NC(=O)[C@@H]2C[C@@H](S(=O)(=O)c3cccc(-c4ccnc(Cl)c4)c3)C[C@H]2C(=O)N2CCC(F)(F)C2)CC1` [Example 204, (1R,2R,4R)-4-[3-(2-Chloro-pyridin-4-yl)-benzenesulfonyl]-2-(3,3-difluoro-pyrrolidine-1-carbonyl)-cyclopentanecarboxylic acid (1-cyano-cyclopropyl)-amide]: 0.135 nM.
In turn, `N#CC1(NC(=O)[C@@H]2C[C@@H](S(=O)(=O)c3ccccc3C(F)(F)F)C[C@H]2Oc2ccccc2)CC1` (racemic) [Example 231, (1R,2R,4R) and (1S,2S,4S)-2-Phenoxy-4-(2-trifluoromethyl-benzenesulfonyl)-cyclopentanecarboxylic acid (1-cyano-cyclopropyl)-amide] gave a half-maximal inhibitory concentration (IC50) of 1.25 nM.
As for `N#CCNC(=O)[C@H]1CC[C@H](S(=O)(=O)c2ccc(F)cc2Cl)C1` (racemic) [Example 79, (1S,3S) and (1R,3R)-3-(2-Chloro-4-fluoro-benzenesulfonyl)-cyclopentanecarboxylic acid cyanomethyl-amide], the figure is 683 nM.
As for `N#CC1(NC(=O)[C@@H]2C[C@H](S(=O)(=O)c3ccccn3)C[C@H]2C(=O)N2CCC(F)(F)C2)CC1` [Example 228, (1R,2R,4S)-2-(3,3-Difluoro-pyrrolidine-1-carbonyl)-4-(pyridine-2-sulfonyl)-cyclopentanecarboxylic acid (1-cyano-cyclopropyl)-amide], the figure is 91 nM; as for `CO[C@@H]1C[C@H](S(=O)(=O)c2ccc(-c3ccccc3)cc2C(F)(F)F)C[C@H]1C(=O)NC1(C#N)CC1` (racemic) [Example 171, (1R,2R,4R) and (1S,2S,4S)-2-Methoxy-4-(3-trifluoromethyl-biphenyl-4-sulfonyl)-cyclopentanecarboxylic acid (1-cyano-cyclopropyl)-amide], 1.2 nM.
Next, `CO[C@@H]1C[C@H](S(=O)(=O)c2ccc(-n3cc(C)cn3)cc2Cl)C[C@H]1C(=O)NC1(C#N)CC1` (racemic) [Example 149, (1R,2R,4R) and (1S,2S,4S)-4-[2-Chloro-4-(4-methyl-pyrazol-1-yl)-benzenesulfonyl]-2-methoxy-cyclopentanecarboxylic acid (1-cyano-cyclopropyl)-amide]: 1.93 nM; `Cc1cc(Cl)ccc1S(=O)(=O)[C@H]1C[C@@H](C(=O)N2CCOCC2)[C@H](C(=O)N2CCC[C@H]2C#N)C1` [Example 44, (S)-1-[(1R,2R,4S)-4-(4-Chloro-2-methyl-benzenesulfonyl)-2-(morpholine-4-carbonyl)-cyclopentanecarbonyl]-pyrrolidine-2-carbonitrile]: 1300 nM.
Take `Cc1cc(-c2ccc(S(=O)(=O)[C@@H]3C[C@@H](C(=O)NC4(C#N)CC4)[C@H](C(=O)N4CCC(F)(F)C4)C3)c(Cl)c2)ccn1` [Example 198, (1R,2R,4R)-4-[2-Chloro-4-(2-methyl-pyridin-4-yl)-benzenesulfonyl]-2-(3,3-difluoro-pyrrolidine-1-carbonyl)-cyclopentanecarboxylic acid (1-cyano-cyclopropyl)-amide]: 0.135 nM corresponded to half-maximal inhibition (IC50).
In the case of `CO[C@@H]1C[C@H](S(=O)(=O)c2ccc(-c3nc(C)cs3)cc2C(F)(F)F)C[C@H]1C(=O)NC1(C#N)CC1` (racemic) [Example 61, (1R,2R,4R) and (1S,2S,4S)-2-Methoxy-4-[4-(4-methyl-thiazol-2-yl)-2-trifluoromethyl-benzenesulfonyl]-cyclopentanecarboxylic acid (1-cyano-cyclopropyl)-amide], the midpoint of inhibition, the IC50, lay at 0.3 nM.
Take `N#CC1(NC(=O)[C@@H]2C[C@@H](S(=O)(=O)c3ccc(Br)cc3C(F)(F)F)C[C@H]2OC2CCOCC2)CC1` (racemic) [Example 169, (1R,2R,4R) and (1S,2S,4S)-4-(4-Bromo-2-trifluoromethyl-benzenesulfonyl)-2-(tetrahydro-pyran-4-yloxy)-cyclopentanecarboxylic acid (1-cyano-cyclopropyl)-amide]: 1.23 nM corresponded to half-maximal inhibition (IC50).
As to `N#CC1(NC(=O)[C@@H]2C[C@@H](S(=O)(=O)c3ccccc3)C[C@H]2C(=O)N2CCC2)CC1` [Example 24, (1R,2R,4R)-2-(Azetidine-1-carbonyl)-4-benzenesulfonyl-cyclopentanecarboxylic acid (1-cyan o-cyclopropyl)-amide], the IC50 came to 9.6 nM.
As for `N#CCNC(=O)[C@@H]1C[C@@H](S(=O)(=O)c2ccc(F)cc2Cl)C[C@H]1COc1ccc(F)cc1` (single isomer, unassigned) [Example 143], the figure is 0.523 nM; as for `Cc1cc(-c2ccc(S(=O)(=O)[C@H]3C[C@@H](OC(C)C)[C@H](C(=O)NC4(C#N)CC4)C3)c(C(F)(F)F)c2)ccn1` (racemic) [Example 140, (1R,2R,4R) and (1S,2S,4S)-2-Isopropoxy-4-[4-(2-methyl-pyridin-4-yl)-2-trifluoromethyl-benzenesulfonyl]-cyclopentanecarboxylic acid (1-cyano-cyclopropyl)-amide], 0.2 nM.
As for `N#CC1(NC(=O)[C@@H]2C[C@@H](S(=O)(=O)c3ccc(F)cc3Cl)C[C@H]2COc2ccc(F)cc2)CC1` (single isomer, unassigned) [Example 145], the figure is 1.25 nM; as for `CC(=O)N1CCN(c2ccc(S(=O)(=O)[C@@H]3C[C@@H](C(=O)NC4(C#N)CC4)[C@H](C(=O)N4CC(F)(F)C4)C3)c(Cl)c2)CC1` [Example 166, (1R,2R,4R)-4-[4-(4-Acetyl-piperazin-1-yl)-2-chloro-benzenesulfonyl]-2-(3,3-difluoro-azetidine-1-carbonyl)-cyclopentanecarboxylic acid (1-cyano-cyclopropyl)-amide], 0.6 nM.
Next, `N#CC1(NC(=O)[C@@H]2C[C@@H](S(=O)(=O)c3ccc(Br)cc3C(F)(F)F)C[C@H]2COC=O)CC1` [Example 152, Formic acid (1R,2R,4S)-4-(4-bromo-2-trifluoromethyl-benzenesulfonyl)-2-(1-cyano-cyclopropylcarbamoyl)-cyclopentylmethyl ester]: 4.2 nM; `N#CC1(NC(=O)[C@H]2CC[C@@H](S(=O)(=O)c3ccc(OCC(F)(F)F)cc3Cl)C2)CC1` (single isomer, unassigned) [Example 99]: 500 nM.
For `N#CC1(NC(=O)[C@@H]2C[C@@H](S(=O)(=O)c3ccc(F)cc3C(F)(F)F)C[C@H]2C(=O)N2CC(F)(F)C2)CC1` [Example 118, (1R,2R,4R)-2-(3,3-Difluoro-azetidine-1-carbonyl)-4-(4-fluoro-2-trifluoromethyl-benzenesulfonyl)-cyclopentanecarboxylic acid (1-cyano-cyclopropyl)-amide], 3 nM corresponded to half-maximal inhibition (IC50).
